The target of assay [1] is T1, Recombinant full-length human IDO1 (Homo sapiens, UniProt P14902).
T1 construct: Recombinant full-length human IDO1 with a N-terminal hexahistidine tag; hexahistidine (His6) (N); made in house; host or cells: E. coli
The experiment in a line: IDO1 enzymatic assay (NFK quantified by LCMS). Type of assay: biochemical. The conditions noted are these: 2 nM enzyme, 5 μM L-tryptophan, pH6.5, 30 minutes pre-incubation at RT; mean values when measured multiple times; read-out: hIDO activity (IC50 in nM). A digest of the protocol:
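IC50 comes from four-parameter logistic fits of duplicate data, with NFK quantified by LCMS and normalized to L-Trp-(indole-d5). Compound (0.5 nM–10 μM) was preincubated 30 min at RT with 2 nM E. coli-expressed IDO1 before a 30 min reaction with 5 μM tryptophan in pH 6.5 buffer containing ascorbate and methylene blue.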

The target in assay [2] is T2, Recombinant human TDO comprising amino acids 19-407 (Homo sapiens, UniProt P48775).
T2 construct: Recombinant human TDO comprising amino acids 19-407 with a N-terminal hexahistidine tag; hexahistidine (His6) (N); made in house; host or cells: E. coli
T2 sequence (P48775 19-406 limits assumed): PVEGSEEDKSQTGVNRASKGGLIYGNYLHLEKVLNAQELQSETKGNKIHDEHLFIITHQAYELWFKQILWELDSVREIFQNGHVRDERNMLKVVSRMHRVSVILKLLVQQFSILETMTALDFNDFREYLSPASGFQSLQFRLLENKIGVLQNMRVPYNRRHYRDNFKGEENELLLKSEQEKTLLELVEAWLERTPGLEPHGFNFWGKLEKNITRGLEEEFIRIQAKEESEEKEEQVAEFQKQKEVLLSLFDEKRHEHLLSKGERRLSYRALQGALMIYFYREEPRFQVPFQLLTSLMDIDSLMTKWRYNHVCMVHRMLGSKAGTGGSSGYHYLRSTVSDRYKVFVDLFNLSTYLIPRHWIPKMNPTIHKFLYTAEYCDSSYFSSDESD
As to the kind of experiment: TDO2 enzymatic assay (NFK quantified by LCMS). The conditions noted are these: 15 nM enzyme, 200 μM L-tryptophan, pH7, 30 minutes pre-incubation at RT; mean values when measured multiple times; read-out: hTDO activity (IC50 in nM). Type of assay: biochemical. A digest of the protocol:
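NFK formed over 30 min at RT from 200 μM L-tryptophan was measured by LCMS, normalized to d5-tryptophan, after compound (0.5 nM–10 μM, duplicates, 0.6% DMSO) was preincubated 30 min with 15 nM recombinant His-tagged TDO 19-407 in phosphate buffer pH 7. IC50 from four-parameter logistic fit; repeats averaged.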

Drawing on US20200405696A1, “INHIBITORS OF INDOLEAMINE 2,3-DIOXYGENASE AND/OR TRYPTOPHAN 2,3-DIOXYGENASE” (IDORSIA PHARMACEUTICALS LTD, priority 2018, published 2020), this text covers IC50 for 21 molecules.

Each structure is given as a SMILES string.

T1 sequence (P14902 whole entry): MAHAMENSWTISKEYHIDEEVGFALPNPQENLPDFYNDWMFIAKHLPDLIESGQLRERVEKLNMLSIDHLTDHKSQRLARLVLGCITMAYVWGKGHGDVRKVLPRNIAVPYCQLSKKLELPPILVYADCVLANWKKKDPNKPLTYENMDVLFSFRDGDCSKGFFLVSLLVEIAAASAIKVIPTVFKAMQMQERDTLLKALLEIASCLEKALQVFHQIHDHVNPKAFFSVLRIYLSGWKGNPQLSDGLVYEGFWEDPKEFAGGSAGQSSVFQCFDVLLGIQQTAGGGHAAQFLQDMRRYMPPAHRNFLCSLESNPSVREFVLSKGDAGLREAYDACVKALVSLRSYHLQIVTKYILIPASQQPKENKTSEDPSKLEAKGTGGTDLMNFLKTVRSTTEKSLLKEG

In the case of `CC(C)(O)COc1ccc(-n2cc([C@H](O)c3c(C4CC4)sc4cncn34)nn2)cc1Cl` [Example 283, 1-(2-Chloro-4-{4-[(R)-(2-cyclopropyl-imidazo[5,1-b]thiazol-3-yl)-hydroxy-methyl]-[1,2,3]triazol-1-yl}-phenoxy)-2-methyl-propan-2-ol], the results for the IC50 in assay [1] and in assay [2] were 7.31 nM and greater than 10200 nM, respectively.

As to `CCc1sc2cncn2c1C(O)c1cn(-c2ccccc2)nn1` (racemic) [Example 12, rac-(2-Ethyl-imidazo[5,1-b]thiazol-3-yl)-(1-phenyl-1H-[1,2,3]triazol-4-yl)-methanol], the 50% inhibitory concentration (IC50) in assay [1] was found to be 20.8 nM; in assay [2], 6740 nM.

`COc1ccc(-n2cc(C(O)c3c(C4CC4)sc4cncn34)nn2)cc1C#N` (racemic) [Example 135, rac-5-{4-[(2-Cyclopropyl-imidazo[5,1-b]thiazol-3-yl)-hydroxy-methyl]-[1,2,3]triazol-1-yl}-2-methoxy-benzonitrile]: the values for the IC50 in assay [1] and in assay [2] were 14 nM and greater than 10200 nM, respectively.

Consider `COc1ncc(-n2cc(C(O)c3c(C4CC4)sc4cncn34)nn2)cc1F` (racemic) [Example 79, rac-(2-Cyclopropyl-imidazo[5,1-b]thiazol-3-yl)-[1-(5-fluoro-6-methoxy-pyridin-3-yl)-1H-[1,2,3]triazol-4-yl]-methanol], for which the concentration for half-maximal inhibition (IC50) in assay [1] is 7.22 nM; in assay [2] it was greater than 10200 nM.

As to `Cc1sc2cncn2c1C(O)c1cn(Cc2ccccc2)nn1` (racemic) [Example 62, rac-(1-Benzyl-1H-[1,2,3]triazol-4-yl)-(2-methyl-imidazo[5,1-b]thiazol-3-yl)-methanol], the results for the IC50 in assay [1] and in assay [2] were 795 nM and greater than 10200 nM, respectively.

Consider `OC(c1cn(-c2ccc(OCC3CC3)c(Cl)c2)nn1)c1c(-c2ccccc2)sc2cncn12` (racemic) [Example 265, rac-[1-(3-Chloro-4-cyclopropylmethoxy-phenyl)-1H-[1,2,3]triazol-4-yl]-(2-phenyl-imidazo[5,1-b]thiazol-3-yl)-methanol], for which the IC50 was 442 nM in assay [1] and greater than 10200 nM in assay [2].

For the molecule `OC(c1cn(-c2ccccc2)nn1)c1c(C2CC2)sc2cncn12` (racemic) [Example 2, rac-(2-Cyclopropyl-imidazo[5,1-b]thiazol-3-yl)-(1-phenyl-1H-[1,2,3]triazol-4-yl)-methanol], the figures for the IC50 in assay [1] and in assay [2] were 28.1 nM and greater than 10200 nM, respectively.

Consider `Cc1ccc(-n2cc(C(O)c3c(C4CC4)sc4cncn34)nn2)cc1` (racemic) [Example 4, rac-(2-Cyclopropyl-imidazo[5,1-b]thiazol-3-yl)-(1-p-tolyl-1H-[1,2,3]triazol-4-yl)-methanol], for which the IC50 in assay [1] is 34.5 nM; in assay [2], greater than 10200 nM.

As for `OC(c1cn(-c2ccncc2)nn1)c1c(C2CC2)sc2cncn12` (racemic) [Example 30, rac-(2-Cyclopropyl-imidazo[5,1-b]thiazol-3-yl)-(1-pyridin-4-yl-1H-[1,2,3]triazol-4-yl)-methanol], the half-inhibitory concentration (IC50) in assay [1] is 63.2 nM; in assay [2], greater than 10200 nM.

As to `COc1ccc(-n2cc(C(O)c3c(C4CC4)sc4cncn34)cn2)cc1` (racemic) [Example 99, rac-(2-Cyclopropyl-imidazo[5,1-b]thiazol-3-yl)-[1-(4-methoxy-phenyl)-1H-pyrazol-4-yl]-methanol], the half-maximal inhibitory concentration (IC50) in assay [1] is 31.8 nM; in assay [2], 3570 nM.

As to `OCCCOc1ccc(-n2cc([C@H](O)c3c(C4CC4)sc4cncn34)nn2)cc1` [Example 137a, 3-(4-{4-[(R)-(2-Cyclopropyl-imidazo[5,1-b]thiazol-3-yl)-hydroxy-methyl]-[1,2,3]triazol-1-yl}-phenoxy)-propan-1-ol], the IC50 was 4.09 nM in assay [1] and greater than 10200 nM in assay [2].

On to `CCOc1ncc(-n2cc(C(O)c3c(C4CC4)sc4cncn34)nn2)cc1Cl` (racemic) [Example 74, rac-[1-(5-Chloro-6-ethoxy-pyridin-3-yl)-1H-[1,2,3]triazol-4-yl]-(2-cyclopropyl-imidazo[5,1-b]thiazol-3-yl)-methanol], for which the half-maximal inhibitory concentration (IC50) in assay [1] is 24.3 nM; in assay [2], greater than 10200 nM.

Take `COCc1ccc(-n2cc(C(O)c3c(C4CC4)sc4cncn34)nn2)cc1` (racemic) [Example 330, rac-(2-Cyclopropyl-imidazo[5,1-b]thiazol-3-yl)-[1-(4-methoxymethyl-phenyl)-1H-[1,2,3]triazol-4-yl]-methanol]: the results for the IC50 in assay [1] and in assay [2] were 31.6 nM and greater than 10200 nM, respectively.

For `COc1ccc(-n2cc(C(O)c3c(C4CC4)sc4cncn34)nn2)cc1O` (racemic) [Example 216, rac-5-{4-[(2-Cyclopropyl-imidazo[5,1-b]thiazol-3-yl)-hydroxy-methyl]-[1,2,3]triazol-1-yl}-2-methoxy-phenol], the half-maximal inhibitory concentration (IC50) in assay [1] was 29.1 nM; in assay [2], greater than 10200 nM.

As to `OC(c1cn(-c2nccc(Br)c2Cl)nn1)c1c(C2CC2)sc2cncn12` (racemic) [Example 200, rac-[1-(4-Bromo-3-chloro-pyridin-2-yl)-1H-[1,2,3]triazol-4-yl]-(2-cyclopropyl-imidazo[5,1-b]thiazol-3-yl)-methanol], the half-inhibitory concentration (IC50) is 55.4 nM in assay [1] and greater than 10200 nM in assay [2].

Turning to `Oc1ccc(-n2cc(C(O)c3c(C4CC4)sc4cncn34)nn2)c(C(F)(F)F)c1` (racemic) [Example 214, rac-4-{4-[(2-Cyclopropyl-imidazo[5,1-b]thiazol-3-yl)-hydroxy-methyl]-[1,2,3]triazol-1-yl}-3-trifluoromethyl-phenol], the values for the concentration for half-maximal inhibition (IC50) in assay [1] and in assay [2] were 127 nM and 8890 nM, respectively.

For the molecule `CCCCNC(=O)Nc1ccc(-n2cc(C(O)c3c(C4CC4)sc4cncn34)nn2)cc1` (racemic) [Example 188, rac-1-Butyl-3-(4-{4-[(2-cyclopropyl-imidazo[5,1-b]thiazol-3-yl)-hydroxy-methyl]-[1,2,3]triazol-1-yl}-phenyl)-urea], the half-maximal inhibitory concentration (IC50) in assay [1] turned out to be 37.8 nM; in assay [2], 8320 nM.

Regarding `CCc1sc2cncn2c1C(O)c1cn(-c2ccc(C(=O)NCCCO)cc2)nn1` (racemic) [Example 115, rac-4-{4-[(2-Ethyl-imidazo[5,1-b]thiazol-3-yl)-hydroxy-methyl]-[1,2,3]triazol-1-yl}-N-(3-hydroxy-propyl)-benzamide], the IC50 was 12.7 nM in assay [1] and greater than 10200 nM in assay [2].

Regarding `COc1cc(-n2cc(C(O)c3c(C4CC4)sc4cncn34)nn2)cnc1OC` (racemic) [Example 80, rac-(2-Cyclopropyl-imidazo[5,1-b]thiazol-3-yl)-[1-(5,6-dimethoxy-pyridin-3-yl)-1H-[1,2,3]triazol-4-yl]-methanol], the IC50 in assay [1] was 51.2 nM; in assay [2], greater than 10200 nM.

`CCc1sc2cncn2c1C(O)c1cn(-c2ccc(NC(N)=O)cc2)nn1` (racemic) [Example 131, rac-(4-{4-[(2-Ethyl-imidazo[5,1-b]thiazol-3-yl)-hydroxy-methyl]-[1,2,3]triazol-1-yl}-phenyl)-urea]: the IC50 turned out to be 22.3 nM in assay [1] and 2150 nM in assay [2].

For `O[C@@H](c1cn(-c2ccc(OCC3CC3)cc2)nn1)c1c(C2CC2)sc2cncn12` [Example 35a, (R)-(2-Cyclopropyl-imidazo[5,1-b]thiazol-3-yl)-[1-(4-cyclopropylmethoxy-phenyl)-1H-[1,2,3]triazol-4-yl]-methanol], the 50% inhibitory concentration (IC50) was 9.7 nM in assay [1] and greater than 10200 nM in assay [2].

The IC50 is the concentration that gives 50% inhibition.
